Measured values published in patent US20090176817A1, “Method of Treatment of Diarrhea-Predominant Irritable Bowel Syndrome in a Subject” (priority 2005, published 2009).
Where two headings read alike, the source gives them in different places.

Legend:
clinical = conditions: human, in vivo; for half-life: T½
Method: Two randomized, double-blind, placebo controlled, balanced incomplete block design, crossover studies evaluated the single- and multiple-dose pharmacokinetics of oral cilansetron over a 8 mg to 32 mg dose range. In both studies, subjects were randomized to receive two of three treatments during 2 treatment periods. In one study (12 male and 13 female subjects, aged 23 to 36 years), subjects received 8 mg cilansetron, 16 mg cilansetron, or placebo, while in another study (12 males and 13 females, aged 23 to 41 years), subjects received 16 mg cilansetron, 32 mg cilansetron, or placebo. During each treatment period, subjects received a single dose of their assigned treatment on the first day, followed by a 3-day washout, after which they received the same treatment TID for 5 days.
There was a 5-6 day washout period between treatment periods. Doses on the mornings of pharmacokinetic days were administered under fasted conditions. Serial blood sampling and urine collection was performed up to 12 hours following morning dosing on the first day (single dose) and on the last multiple dosing day of each treatment period, and cilansetron pharmacokinetic parameters were evaluated.
In two randomized, double-blind, placebo controlled, balanced incomplete block design, crossover studies evaluating the single- and multiple-dose pharmacokinetics of oral cilansetron over a 8 mg to 32 mg dose range, subjects were randomized to receive two of three treatments during 2 treatment periods. In Study S.241.1.101; (12 male and 13 female subjects, aged 23 to 36 years), subjects received 8 mg cilansetron, 16 mg cilansetron, or placebo, while in Study S.24 1.1.102; (12 males and 13 females, aged 23 to 41 years), subjects received 16 mg cilansetron, 32 mg cilansetron, or placebo. During each treatment period, subjects received a single dose of their assigned treatment on the first day, followed by a 3-day washout, after which they received the same treatment TID for 5 days. There was a 5-6 day washout period between treatment periods. Doses on the mornings of pharmacokinetic days were administered under fasted conditions. Serial blood sampling and urine collection was performed up to 12 hours following morning dosing on the first day (single dose) and on the last multiple dosing day of each treatment period, and cilansetron pharmacokinetic parameters were evaluated.

[1] = both, human; for Fraction unbound ratio All Renal Groups Combined:Healthy / Fraction unbound ratio Mild:Healthy / Fraction unbound ratio Moderate:Healthy / Fraction unbound ratio Severe:Healthy: serum
Method: The ex vivo protein binding of cilansetron and its 4-hydroxy metabolites has been measured in serum samples collected in a multiple-dose study in healthy and renally impaired male and female subjects, aged 33-74 years. […] Healthy subjects were matched to renally-impaired subjects with respect to age, weight, gender, and smoking status. All subjects received oral cilansetron 2 mg TID on Days 1 to 5, and a single dose on the morning of Day 6.

healthy subjects = test: Study S.241.2.106: colonic motility index; type: in vivo, human; conditions: for colonic motility index, Comparison to Placebo: Ratio: ANOVA; for colonic motility index: arith. mean
Method: The effect of cilansetron on colonic motility was evaluated in a randomized, double-blind, placebo-controlled, 3-way crossover study in 12 healthy male and female subjects (ITT population), aged 24-34 years. Subjects received cilansetron 4 mg, cilansetron 8 mg, or placebo orally TID for 7 days during each of the treatment periods, with a 7-day washout between periods. Colonic motility assessments were done on the last day of each treatment period, around the time of the last dose. Subjects were fasted for 12 hours prior to start of colonic assessments. Colonic motor activity was recorded from 30 minutes prior to dosing until 240 minutes postdose. A high-calorie meal was administered at 1 hour postdose and 1 mg neostigmine was administered intramuscularly at 2.5 hours postdose. The main objective of the assessments was to establish whether cilansetron was able to reduce colonic motor activity after meal ingestion and after neostigmine injection. The main parameter of interest was the motility index, which was measured in intervals of ten minutes for a total period of 150 minutes postprandially. The time intervals of major interest were the 30-minute interval after start of meal ingestion (91-120 minutes) and the 30-minute interval after neostigmine injection (181-210 minutes). An ANOVA was used to compare the motility indices between treatments.

CYP3A4 = conditions: hepatocytes
[2] = tested on: diarrhea-predominant IBS subjects; test: Study S241.3.006: IBS-QOL; type: in vivo, human; conditions: for Percentage of Subjects Who Worsened from Baseline: IBS-QOL Overall Score: S241.3.006, 2 mg TID, observed value
Description: (§1) Studies S24 1.3.OO6, S24 1.3.0 1 1, and S24 1.3.009 used the following efficacy measurements: • The subjects answered the following three questions with “yes” or “no” using a phone diary at the end of each week: • a) During the last week, did you experience adequate relief of your IBS symptoms, such as abdominal pain, abdominal discomfort, abnormal bowel habits? • b) During the last week, did you experience adequate relief of your abdominal pain and/or discomfort? • c) During the last week, did you experience adequate relief of your abnormal bowel habits? • The subjects rated the following symptoms using the phone diary at the end of each day: • abdominal pain/discomfort (five-point scale); • stool consistency (seven-point Bristol Stool Scale); • stool frequency (number of bowel movements each day); • urgency (five-point scale); • straining (yes or no); • feeling of incomplete defecation (yes or no); • bloating or feeling of abdominal distension (five-point scale). • In Studies S241 A006 and S241.3.009, subjects completed the IBS-QOL Survey at Baseline (Day 1) and at the end of treatment. In Study S24 1.3.0 1 1, subjects completed the IBS-QOL Survey at Baseline (Day 1), at the end of the three-month treatment period, and at the end of rerandomized treatment.
(§2) Other secondary efficacy parameters for all three studies included: • Responder rate for the weekly diary questions on adequate relief at each month, where a responder for a month (monthly responder) was defined as a subject who answered the weekly question with “yes” at least twice for that month. The responder rate was the percentage of responders within a treatment group. The all-month responder rate for the weekly diary questions on adequate relief was also evaluated, where an all-month responder was defined as a subject who answered the weekly question with “yes” at least twice for each month. The all-month responder rate was the percentage of all-month responders within a treatment group; • Adequate relief rate for the weekly diary questions was calculated for each subject as the number of weekly assessments with adequate relief (“yes”) divided by the total number of weekly assessments; • Percentage of subjects with adequate relief for the weekly diary questions at each week; • Daily diary questions regarding abdominal pain/discomfort (five-point scale), stool consistency (seven-point scale), stool frequency (number of bowel movements each day), straining (yes or no), urgency (five-point scale), feeling of incomplete evacuation (yes or no), and bloating or feeling of abdominal distention (five-point scale); • QOL data assessed by the IBS-QOL questionnaire; and • Question to determine the interruption of activities.

[3] = tested on: diarrhea-predominant IBS subjects; test: Study S241.3.011: interruption of activities assessment; type: in vivo, human
Description: as §1, §2

[4] = After Meal Ingestion, 4 mg TID oral 7 days
[5] = After Meal Ingestion, 8 mg TID oral 7 days
[6] = After Neostigmine, 4 mg TID oral 7 days
[7] = After Neostigmine, 8 mg TID oral 7 days

With `Cc1nccn1C[C@H]1CCc2c(c3cccc4c3n2CCC4)C1=O` [Cilansetron, (R)-(−)-4,5,6,8,9,10-hexahydro-10-[(2-methyl-1H-imidazol-1-yl)methyl]-11H-pyrido-[3,2,1-jk]-carbazol-11-one] the half-life (clinical; both, 16 mg) was 1.35 h, the Tmax (clinical; both, 32 mg) was 1 h and the AUC (clinical; both, 32 mg) was 451 ng·h/mL. For the same compound, the Cmax (clinical; both, 32 mg) was 216 ng/mL, the half-life (clinical; both, 32 mg) was 1.22 h and the Tmax (clinical; female, 32 mg) was 1 h. The AUC (clinical; female, 32 mg) was 405 ng·h/mL, the Cmax (clinical; female, 32 mg) was 210 ng/mL and the half-life (clinical; female, 32 mg) was 1.08 h. For the same compound, the Tmax (clinical; female, po, 16 mg) was 1 h, the Tmax (clinical; female, po, 32 mg) was 1 h and the AUC (clinical; female, po, 32 mg) was 433 ng·h/mL. For the same compound, the Cmax (clinical; female, po, 32 mg) was 270 ng/mL, the half-life (clinical; female, po, 32 mg) was 1.01 h and the Tmax (clinical; male, 32 mg) was 1 h. It also gave an AUC (clinical; male, 32 mg) of 354 ng·h/mL, a Cmax (clinical; male, 32 mg) of 140 ng/mL and a half-life (clinical; male, 32 mg) of 1.4 h. It also gave a Tmax (clinical; male, po, 16 mg) of 1 h, a Tmax (clinical; male, po, 32 mg) of 1.5 h and an AUC (clinical; male, po, 32 mg) of 469 ng·h/mL. The Cmax (clinical; male, po, 32 mg) was 161 ng/mL, the half-life (clinical; male, po, 32 mg) was 1.44 h and the “Protein bound on average” value [1] was 96.0-96.6%. The “Fraction unbound ratio All Renal Groups Combined:Healthy” value [1] was 81 (62, 105) %, the “Fraction unbound ratio Mild:Healthy” value [1] was 86 (61, 121) % and the “Fraction unbound ratio Moderate:Healthy” value [1] was 84 (54, 131) %. The “Fraction unbound ratio Severe:Healthy” value [1] was 73 (52, 102) %, the “Fraction unbound ratio All Renal Groups Combined:Healthy” value ([1]; 1 h) was 94 (76, 116) % and the “Fraction unbound ratio Mild:Healthy” value ([1]; 1 h) was 91 (70, 119) %. The “Fraction unbound ratio Moderate:Healthy” value ([1]; 1 h) was 105 (79, 140) %, the “Fraction unbound ratio Severe:Healthy” value ([1]; 1 h) was 87 (65, 115) % and the “Fraction unbound ratio All Renal Groups Combined:Healthy” value ([1]; […]) was 88 (70, 109) %. The “Fraction unbound ratio Mild:Healthy” value ([1]; […]) was 92 (69, 123) %, the “Fraction unbound ratio Moderate:Healthy” value ([1]; […]) was 90 (66, 123) % and the “Fraction unbound ratio Severe:Healthy” value ([1]; […]) was 81 (59, 110) %. For the same compound, the “colonic motility index, Comparison to Placebo: Ratio” value (“colonic motility index … Ratio” for short) (healthy subjects; [4]) was 101%, the colonic motility index (healthy subjects; [4]) was 20358 and the “colonic motility index … Ratio” value (healthy subjects; [5]) was 106%. The colonic motility index (healthy subjects; [5]) was 23478, the “colonic motility index … Ratio” value (healthy subjects; [6]) was 192% and the colonic motility index (healthy subjects; [6]) was 50580. For the same compound, the “colonic motility index … Ratio” value (healthy subjects; [7]) was 162%, the colonic motility index (healthy subjects; [7]) was 48691 and the “CYP3A4 mRNA induction” value (CYP3A4) was “did not induce”. For the same compound, the “Subjects worsened from Baseline, IBS-QOL Overall Score” value ([2]; Month 3) was 5%, the “Percentage of Subjects Who Worsened from Baseline: IBS-QOL Overall Score” value ([2]; Endpoint (last post-Baseline overall score)) was 6% and the “Percentage of Subjects Who Worsened from Baseline: IBS-QOL Overall Score” value ([2]; Month 3) was 5%. The “IBS-QOL body image, treatment difference” value ([2]; vs placebo) was 7.43, the “IBS-QOL dysphoria, treatment difference” value ([2]; vs placebo) was 7.34 and the “IBS-QOL food avoidance, treatment difference” value ([2]; vs placebo) was 8.92. For the same compound, the “IBS-QOL health worry, treatment difference” value ([2]; vs placebo) was 3.21, the “IBS-QOL interference with activity, treatment difference” value ([2]; vs placebo) was 9.73 and the “IBS-QOL overall score, treatment difference in mean change from Baseline at Endpoint” value ([2]; vs placebo) was 7.37. The “IBS-QOL relationships, treatment difference” value ([2]; vs placebo) was 5.19, the “IBS-QOL sexual, treatment difference” value ([2]; vs placebo) was 5.64 and the “IBS-QOL social reaction, treatment difference” value ([2]; vs placebo) was 6.19. For the same compound, the “Subjects “not at all or rarely” bothered, rerandomization Endpoint” value (“Subjects “not … rerandomization Endpoint” below) ([3]; C/C) was 54%, the “Subjects “not … rerandomization Endpoint” value ([3]; C/P) was 37% and the “Subjects “not at all or rarely” bothered by IBS symptoms” value ([3]; Endpoint, 3-month period) was 46%. For the same compound, the “Subjects “not … rerandomization Endpoint” value ([3]; P/C) was 50%.
